This is an account of results in US10016424B2, “Method and pharmaceutical composition for use in the treatment of epilepsy” (INSERM (Institut National de la Sante et de la Recherche …, priority 2013, dated 2018).

Assay [1] has as its system pilocarpine-status epilepticus model of chronic TLE. Description: Interictal spikes, in vivo local field potential recordings in DG of anesthetized pilocarpine-treated mice. Details: species or system mouse. The protocol:
(§1) All experiments were approved by the Institut National de la Santé et de la Recherche Médicale animal care and use committee of May 29, 2001 (2001-464) and the European community council directive of Nov. 24, 1986 (86/609/EEC). Mice (FVB/N background) had access to food and water ad libitum and were housed under a 12 h light/dark cycle at 22-24° C. Male GluK2−/− and WT mice (P60-80) were given scopolamine (1 mg/kg) subcutaneously (s.c.) 15 minutes prior to s.c. administration of pilocarpine (200-600 mg/kg). A ramp protocol was used whereby animals were given an initial dose of 200 mg/kg followed by half-doses every 30 minutes until seizures appeared. Both WT and GluK2−/− mice typically experienced at least two seizures prior to entering status epilepticus (SE). Diazepam (10 mg/kg) was administered 45 minutes after onset of SE.
Naïve wildtype (WT) and pilocarpine-treated WT or GluK2−/− mice (5-6 months old) were anaesthetized with xylazine 13 mg/kg/ketamine 66 mg/kg and placed in a stereotaxic frame (supplemental dosing was administered as required). Body temperature was maintained using a heating pad. The scalp was removed and a small bone window was drilled above the hippocampus (2.1 mm posterior to bregma and 1.4 mm lateral to midline over the right hemisphere). For local field potentials recordings performed in anaesthetized mice, a glass electrode ([…]) filled with Ringer solution (135 mM NaCl, 5.4 mM KCl, 1 mM MgCl2, 1.8 mM CaCl2, 5 mM HEPES) was inserted into the DG (depth, 1650 μm). Recordings were performed using a DAM-80 amplifier (low filter, 1 Hz; high filter, 3 KHz; World Precision Instruments, Sarasota, Fla.). UBP310 or vehicle (saline/10% DMSO) was subsequently injected intraperitoneally (i.p.). During recordings and subsequent analysis, the experimenter was blind to the genotype. For intrahippocampal electroencephalographic (EEG) recordings performed in freely-moving animal a stainless steel electrode (Plastic one, Roanoke, Va.) was inserted into the DG under anesthesia (see above). After a 4 day recovery, EEG (amplified (1000×), filtered at 0.16-97 Hz pass, acquired at 500 Hz) was monitored using a telemetric system (Data Sciences International, St. Paul, Minn.) for 4 days, 24 h per day. Intrahippocampal EEG traces represented the difference in potential between the electrode inserted into the DG and an electrode positioned above the cerebellum; food and water were given ad libitum. UBP310 or vehicle (saline/10% DMSO) was injected intraperitoneally twice a day.
In TLE, interictal spikes (ISs) represent one of the best documented biomarkers of epilepsy in patient and animal models (Staley et al., 2005). […]

For assay [2] the test system is unchanged. Kind of assay: Ictal discharges, telemetric intrahippocampal EEG in freely-moving pilocarpine-treated mice. Format: in vivo, mouse. The protocol: as §1
Naïve wildtype (WT) and pilocarpine-treated WT or GluK2−/− mice (5-6 months old) were anaesthetized with xylazine 13 mg/kg/ketamine 66 mg/kg and placed in a stereotaxic frame (supplemental dosing was administered as required). Body temperature was maintained using a heating pad. […] After a 4 day recovery, EEG (amplified (1000×), filtered at 0.16-97 Hz pass, acquired at 500 Hz) was monitored using a telemetric system (Data Sciences International, St. Paul, Minn.) for 4 days, 24 h per day. […]

Another assay concerns AMPA receptor. The note with it: cited from earlier work.
Assay [3] relates to dentate gyrus of organotypic slices. Kind of assay: Spontaneous interictal-like activity, extracellular field recordings in pilocarpine-treated organotypic hippocampal slice cultures. The format is cell-based, mouse. The note with it: P=0.902, n=6.

Take `Cc1cn(C[C@H](N)C(=O)O)c(=O)n(Cc2ccsc2C(=O)O)c1=O` [UBP310]: the “reduction of number of interictal spikes (ISs)” value in assay [1] (60 mg/kg intraperitoneal, WT epileptic mice, anesthetized) stood at 64%. In addition, in assay [1] (60 mg/kg intraperitoneal, WT epileptic mice, data not shown), the “change in IS amplitude” value is “no change in amplitude”. Moreover, in assay [1] (60 mg/kg, GluK2-/- mice, P=0.497), the “effect on number of ISs in GluK2-/- mice” value is listed as “no effect”. Also, the “effect on IS number at dose reduced by 10 times” value in assay [1] (injected dose reduced by 10 times from 60 mg/kg, P=0.548) is given as “no significant effect”. In assay [2] (60 mg/kg intraperitoneal for 3 days, P=0.286), the “change in duration of ictal events” value is recorded as “without a significant change”. In addition, the “reduction of number of ictal events” value in assay [2] (60 mg/kg intraperitoneal twice a day for 3 days, WT epileptic mice, freely moving) was determined as 41%. In addition, the “interference with normal synaptic transmission due to the AMPA receptor” value in the assay on AMPA receptor was “does not interfere”. Besides, the “reduction of frequency of interictal-like activity in GluK1-/- versus WT mice” value in assay [3] is reported as “similarly effective”.
